# “And” between values parts separate entries of the source, which are not always exact repeats. Identical values can stand only once.
# Key:
# [1] = tested on: randomly selected Chinese patients receiving warfarin; experiment: Warfarin maintenance dose and INR in 104 randomly selected Chinese patients receiving warfarin, by VKORC1 -1639 genotype; type: in vivo, human
# Method: (§1) Clinical information (including age, sex, weight, and average daily maintenance dose) was obtained from every participant.
# Briefly, primers and probes were designed using the Spectro[…] software (Sequenom). Multiplex PCR was performed, and unincorporated dNTPs were dephosphorylated using shrimp alkaline phosphatase (Hoffman-LaRoche, Basel, Switzerland), followed by primer extension. The purified primer extension reactions were spotted onto a 384-element silicon chip (SpectroCHIP, Sequenom), analyzed in the Bruker Biflex III MALDI-TOF SpectroREADER mass spectrometer (Sequenom), and the resulting spectrum was processed with SpectroTYPER (Sequenom).
# We analyzed the data regardless of the presence of other confounding variables, such as diet or other medications.
# [2] = tested on: Han Chinese patients having warfarin sensitivity and resistance; experiment: Warfarin maintenance dose and INR in selected Chinese patients with warfarin sensitivity or resistance, by VKORC1 -1639 genotype; type: in vivo, human; conditions: for Dose: individual patients; for dose requirements, mean / dose requirements, range: selected patients
# Excerpt: as §1
# Primers were specifically designed for the intron-exon junctions, exons and 2 kbps upstream of the transcription start site for both CYP2C9 and VKORC1 using the Primer3 PCR primer program (http://fokker.wi.mit.edu/cgi-bin/primer3/primer3_www.cgi). The primers used to detect variants in the VKORC1 promoter were: 5′-[…] (SEQ ID NO:2; sense strand located 1.5 kb upstream of the transcription start site) and 5′-[…] (SEQ ID NO:3; anti-sense strand located 0.9 kb upstream of the transcription start site). The polymerase chain reactions (PCR) were performed in a final volume of […] containing 0.4 μM of each primer, 10 mM Tris-HCl (pH8.3), 50 mM KCl, 1.5 mM MgCl2, 0.2 mM dNTPs and 1 unit HotStart Taq™ (Qiagen Inc, Valencia, Calif., USA). Amplification conditions consisted of an initial denaturation of 12 min at 96° C., followed by 34 PCR cycles in 30 sec at 96° C., 30 sec at 60° C., 40 sec at 72° C.
# The variants were: 1075 A>C (1359L known as CYP2C9*3), 895 A>G (T299A), and 1145 C>T (P382L).
# We also sequenced the promoter, coding regions, and the exon-intron junctions of the VKORC1 gene.
# [3] = heterozygous AG at VKORC1 -1639
smiles,measurement,setting,value
"CC(=O)CC(c1ccccc1)c1c(O)c2ccccc2oc1=O (racemic) [warfarin, 4-hydroxy-3-(3-oxo-1-phenylbutyl)-2H-1-benzopyran-2-one]","warfarin dose, upper limit observed",[1]; none of the randomly selected patients had a greater dose,≤ 6 mg/day
same,maintenance dose,"[1]; randomly selected patients, AA genotype",2.61+/−1.10 my/day
same,"Warfarin dose,","[1]; randomly selected patients, VKORC1 -1639 AG + GG (n = 21), mean ± SD",3.81 ± 1.24 mg/day and 3.81 mg/day
same,Dose,"[2]; VKORC1 -1639 AA, warfarin sensitive group (dose ≦1.5 mg/day), average daily maintenance dose",1.43 mg/d and 1.5 mg/d and 0.71 mg/d and 1 mg/d (2×)
same,Dose,"[2]; VKORC1 -1639 AG, warfarin resistant group (dose ≧6 mg/day)",6.07 mg/day and 10 mg/day
same,Dose,"[2]; VKORC1 -1639 GG, warfarin resistant group (dose ≧6 mg/day)",8.57 mg/day and 8.75 mg/day and 10 mg/day
same,"dose requirements, mean",[2]; AA genotype at VKORC1 -1639,1.19 mg/day
same,"dose requirements, range",[2]; AA genotype at VKORC1 -1639,0.71 to 1.50 mg/day
same,"dose requirements, mean",[2]; [3],8.04 mg/day
same,"dose requirements, range",[2]; [3],6.07 to 10 mg/day
same,"dose requirements, mean",[2]; homozygous GG at VKORC1 -1639,9.11 mg/day
same,"dose requirements, range",[2]; homozygous GG at VKORC1 -1639,8.57 to 10 mg/day

# Source: patent publication US20110236885A1 (Academia Sinica, priority 2004, published 2011)
